Usually Ki stands for the dissociation constant of the complex between target and ligand, obtained from inhibition or displacement. As a reminder, the inhibition is the drop in the measured response relative to a control, in per cent.

This passage reports Activity, Ki and inhibition results from ChEMBL document CHEMBL1158284, “Biological activities of the nortropane alkaloid, calystegine B2, and analogs: structure-function relationships” (J Nat Prod, 1996).

Activity calls are given as the source filed them. No cut-off for these calls is given here.

In test [1] the test system is Agrobacterium tumefaciens. As to the kind of experiment: Antibacterial activity against Cac gene-deficient Agrobacterium tumefaciens C58C1. The format is functional, organism-based.
Test [2] has as its system Medicago sativa. Briefly: Allellopathic effect in Medicago sativa assessed as reduction in root elongation at 5 mM after 19 hrs. The format is functional. Also noted: scale not given: the % may be the effect or the level left.
The subject of test [3] is Sinorhizobium meliloti. Briefly: Antibacterial activity against Cac gene-deficient Rhizobium meliloti GMI13. It counts as functional, organism-based.
The subject of test [4] is Medicago sativa. As to the kind of experiment: Allellopathic effect in Medicago sativa assessed as reduction in root elongation at 5 mM after 43 hrs. The format is functional. Also noted: scale not given: the % may be the effect or the level left.
In the next test the test system is Agrobacterium rhizogenes. Briefly: Antibacterial activity against Cac gene-deficient Agrobacterium rhizogenes HRI. It counts as functional, organism-based.
Test [5] has as its system Medicago sativa. As to the kind of experiment: Allellopathic effect in Medicago sativa assessed as reduction in root elongation at 10 mM after 19 hrs. It counts as functional. More on the design: scale not given: the % may be the effect or the level left.
For test [6], the system named is Sinorhizobium meliloti. Briefly: Antibacterial activity against Cac gene-deficient Rhizobium meliloti RCR2011. The format is functional, organism-based.
In test [7] the test system is Medicago sativa. As to the kind of experiment: Allellopathic effect in Medicago sativa assessed as inhibition of seed germination up to 10 mM. It counts as functional, organism-based.
Test [8] concerns Medicago sativa. As to the kind of experiment: Allellopathic effect in Medicago sativa assessed as reduction in root elongation at 10 mM after 43 hrs. The format is functional. More on the design: scale not given: the % may be the effect or the level left.
Test [9] has as its system Aspergillus niger. As to the kind of experiment: Inhibition of Aspergillus niger alpha-galactosidase 1.0 mg/mL.
The test system of test [10] is Prunus dulcis. As to the kind of experiment: Inhibition of almond beta-glucosidase at 0.5 mg/mL.
The test system of test [11] is Prunus dulcis. Briefly: (§1) Inhibition of almond beta-glucosidase.
Test [12] concerns Aspergillus niger. Briefly: (§2) Inhibition of Aspergillus niger alpha-galactosidase.
A short description of test [13]: as §1. Also noted: species or system Prunus dulcis.
The test system of test [14] is Medicago sativa. Briefly: Allellopathic effect in Medicago sativa assessed as inhibition of seed germination at 5 mM. The format is functional.
Test [15] can be described thus: as §2.
For test [16], the system named is Sinorhizobium meliloti. As to the kind of experiment: Induction of Cac gene-expressing Rhizobium meliloti 41 growth. The format is functional, organism-based.

With `O[C@H]1[C@H](O)[C@H](O)[C@@]2(O)CC[C@@H]1N2`, the result (in test [1]; in the test with Sinorhizobium meliloti [3]; in the test on Agrobacterium rhizogenes; in the test on Sinorhizobium meliloti [6]; in the test with Medicago sativa [7]; in the test on Aspergillus niger [9]) was inactive. In the test with Prunus dulcis [10], the result was inactive. In addition, the Activity stood at 20% in the test with Medicago sativa [2], 8% in the test with Medicago sativa [4], 25% with Medicago sativa [5] and 18% in the test on Medicago sativa [8].

Take `CN1[C@@H]2CC[C@@]1(O)[C@@H](O)[C@H](O)[C@H]2O`: the result with Prunus dulcis [11] was inactive. Also, in the test with Aspergillus niger [12], the result was Active.

Turning to `O[C@@H]1[C@@H](O)[C@H](O)[C@]2(O)CC[C@H]1N2` [CALYSTEGINE B2], the Ki came out at 4 µM in test [13] and 7 µM in test [15]. Further, the outcome (in test [1]; with Sinorhizobium meliloti [3]; in the test on Agrobacterium rhizogenes; with Sinorhizobium meliloti [6]) was inactive. In the test with Medicago sativa [14], the inhibition at 5000 µM turned out to be 50%. Further, the Activity in the test with Medicago sativa [2] is on record as 37%; in the test with Medicago sativa [4], 12%; in the test on Medicago sativa [5], 46%; in the test with Medicago sativa [8], 40%. The outcome in the test with Sinorhizobium meliloti [16] was Active.
